# Measurements published in publication PMC4428793, “MK571 inhibits phase-2 conjugation of flavonols by Caco-2/TC7 cells, but does not specifically inhibit their apical efflux^” (Biochemical Pharmacology, 2015).
# “And” between values parts separate entries of the source, which are not always exact repeats. Equal entries are not always repeated.
# Key:
# Bcrp1 = system: Bcrp1; parameters: method as in PMID 15749994; conditions: Mrp2 deficient rats; ref [33]; cited from earlier work
# [1] = system: UDP-β-D-glucuronosyl transferase (UDP-GT) activity in the Caco2 cell-free extracts; assay: Enzyme kinetics of kaempferol glucuronidation in Caco2 cell-free extracts (Km, Vmax, Ki); format: biochemical, human; conditions: substrate kaempferol 5–150 μM; estimated from reciprocal plots; read-out: Ki for inhibition of the synthesis of K-4′-O-GlcA
# Protocol: Cells were grown until 21 days post confluent and washed and aspirated as described previously. The cells were then scraped into tubes and these tubes kept on ice at all times throughout the preparation procedure. Homogenisation buffer comprised of sodium phosphate buffer (50 mM adjusted to pH 6.5; 20 mL), two mini protease inhibitor cocktail tablets containing EDTA and perfabloc, dithiothreitol (30.8 mg), alamethacin (20 μL of a 22 μg/mL) solution from T. viride; and MgCl2 (3.5 mg). Cell-free homogenates were prepared by mixing cells with homogenisation buffer (50:50, vol/vol) and vortexing with glass beads in an eppendorf tube three times for 1 min over a 10 min period. […] The supernatant was removed and analysed via HPLC.
# Estimates of initial rates (v) of formation of flavonol conjugates by UDP-β-D-glucuronosyl transferase (UDP-GT) activity in the Caco2 cell-free extracts were calculated for each concentration of S (S = kaempferol; [S] range 5–150 μM). […] The type of inhibition was determined by plotting 1/v versus 1/S for each of the inhibitor (MK571) concentrations tested and observing the location of the intersection of the lines, which also gave estimated values for Km and Vmax. […]
# Caco-2/TC7 cells = assay: Flavonol metabolism and transport experiments on Caco-2/TC7 transwell monolayers, effect of MK571; format: cell-based, human
# Protocol: Cells were grown at 37 °C in a humidified incubator with 5% CO2 in Dulbecco Modified Eagle's Medium (DMEM) containing 1% non-essential amino acids, 1% L-glutamine, 100 IU/mL penicillin and 100 μg/mL streptomycin, 1 g/L glucose, and supplemented with 20% (v/v) heat inactivated fetal calf serum. Cells were passaged at 80% confluency, and seeded at 2–4 × 10^4 cells per cm^2 on 10 cm dishes (growing area 75 cm^2) or 12-well transwells (growing area of 1.1 cm^2). […] Toxicity of MK571 on Caco-2/TC7 cell monolayers was determined through comparison of pre- and post-loading TEER values of wells incubated with MK571.
# Flavonol stocks (quercetin, kaempferol, galangin; 10 mM) were prepared in dimethylsulfoxide (DMSO) and stored at −20 °C. MK571 was dissolved in dimethyl sulfoxide (10 mM final concentration) and stored at −20 °C. Prior to the metabolism or transport experiments, cells were aspirated of media and washed three times with phosphate buffered saline (PBS). To foetal calf serum and phenol red-free DMEM was added ascorbic acid at a final concentration of 100 μM as well as MK571 at the desired concentration. For metabolism experiments, 10 mL of this media was added to the cells in 10 cm dishes. For transport experiments using transwells, 0.6 mL of this media was added to the apical compartment of the transwell and 1 mL was added to the basolateral compartment. Control wells received an equivalent dose of dimethyl sulfoxide as the treatment wells. Cells were incubated at 37 °C for 30 min, after which flavonols dissolved in dimethyl sulfoxide (kaempferol, galangin or quercetin) were added to the media of treatment wells at a final concentration of 40 or 100 μM, while control wells were treated with the dimethyl sulfoxide vehicle alone. Concentrations of quercetin were increased to 100 μM because instability of quercetin in media necessitated higher initial loading to maintain adequate cellular and media concentrations for uptake and metabolism of the flavonol. Control and treatment cells were incubated at 37 °C for the periods indicated in the results.
# Following the required incubation period, media and cell fractions were harvested and analysed to identify and quantify flavonol metabolites using HPLC. Media was removed from the apical (0.5 mL) and basolateral (0.5 mL) compartments of transwells and added to 25 μL trifluoroacetic acid and 25 μL HPLC grade acetonitrile. Media from 10 cm dishes (1 mL) was removed and added to 50 μL trifluoroacetic acid and 25 μL HPLC grade acetonitrile. Cells were washed three times with cold (room temperature) phosphate buffered saline solution and scraped free of the dish surface. For transwells, 100 μL MilliQ water was added to the cells and the resulting cell suspension pipetted into 10 μL trifluoroacetic acid and 10 μL HPLC grade acetonitrile. For 10 cm dishes, the resulting cell suspension was pipetted into 25 μL trifluoroacetic acid and 25 μL HPLC grade acetonitrile. Samples were either analysed immediately or otherwise stored at −20 °C prior to HPLC analysis. Flavonols were stable during frozen storage and thawing (no significant losses up to 26 weeks).
# Media samples were thawed where necessary and then mixed using a vortex mixer, centrifuged for 10 min at 14,000 × g using a micro centrifuge, and the supernatant removed and placed in an HPLC vial for analysis. Cell samples were vortex-mixed and then ultra-sonicated (sonic water bath) for 10 min, vortex mixed again and then centrifuged for 10 min at 14,000 × g using a micro-centrifuge, before removal of supernatant for HPLC analysis. Identification and quantification of individual flavonol metabolites was carried out using liquid chromatography–mass spectrometry and nuclear magnetic resonance analyses, as described previously. […]
# Caco-2 cells = conditions: cited from earlier work
# [2] = system: Caco-2 cell culture model; parameters: method as in PMID 12893842; conditions: 50 μM MK571; ref [39]; cited from earlier work
# [3] = 50 μM MK571, vs vehicle-only control, transwell monolayers
# [4] = galangin 40 μM + 50 μM MK571 apical, 60 min
# [5] = in the presence of MK571 (Table 1: 50 μM)
# [6] = kaempferol 40 μM + 50 μM MK571 apical, 60 min
# [7] = kaempferol 40 μM + 100 μM MK571 apical, 60 min
# [8] = quercetin 100 μM + 50 μM MK571 apical, 60 min
# [9] = 50 μM MK571, Caco-2 cells, ref Walle et al. [28]
smiles,measurement,setting,value
COc1ccc2c3c([nH]c2c1)[C@H](C=C(C)C)N1C(=O)[C@@H]2CCCN2C(=O)[C@@H]1C3 [FTC],Total plasma quercetin and isorhamnetin concentrations,Bcrp1,twice that of controls
CN(C)C(=O)CCSC(SCCC(=O)O)c1cccc(/C=C/c2ccc3ccc(Cl)cc3n2)c1 (stereo not shown) [MK571],Ki,[1],19.7 µM
same,Increase in galangin aglycone concentration of the cellular extract,Caco-2/TC7 cells; 50 μM MK571,+180%
same,Increase in kaempferol aglycone concentration of the cellular extract,Caco-2/TC7 cells; 50 μM MK571,+182%
same,Increase in quercetin aglycone concentration of the cellular extract,Caco-2/TC7 cells; 50 μM MK571,+119%
same,Reduction in production of kaempferol sulphates,Caco-2/TC7 cells; 50 μM MK571,50.8%
same,Reduction in production of total kaempferol glucuronides,Caco-2/TC7 cells; 50 μM MK571,52.3%
same,Reduction in apical efflux of kaempferol conjugates,"Caco-2/TC7 cells; 50 μM MK571, vs no MK571, transwell monolayers",44% and 43.2%
same,Reduction in apical efflux of galangin conjugates,Caco-2/TC7 cells; [3],38% and 38.5%
same,Reduction in apical efflux of quercetin conjugates,Caco-2/TC7 cells; [3],37.1%
same,Increase in kaempferol aglycone concentration of the cellular extract,Caco-2/TC7 cells; 100 μM MK571,+229%
same,Reduction in production of kaempferol sulphates,Caco-2/TC7 cells; 100 μM MK571,88.4%
same,Reduction in production of total kaempferol glucuronides,Caco-2/TC7 cells; 100 μM MK571,67.2%
same,"Apical galangin conjugates, change vs no MK571",Caco-2/TC7 cells; [4],−38.5%
same,"Apical galangin conjugates, rate",Caco-2/TC7 cells; [4],1.789 nmol/h
same,"Basolateral galangin conjugates, change vs no MK571",Caco-2/TC7 cells; [4],−43.6%
same,"Basolateral galangin conjugates, rate",Caco-2/TC7 cells; [4],2.279 nmol/h
same,"Cellular galangin conjugates, change vs no MK571",Caco-2/TC7 cells; [4],−28.7%
same,"Cellular galangin conjugates, rate",Caco-2/TC7 cells; [4],0.004 nmol/h
same,"Total galangin conjugates, change vs no MK571",Caco-2/TC7 cells; [4],−41.4%
same,"Total galangin conjugates, rate",Caco-2/TC7 cells; [4],4.072 nmol/h
same,Decrease in galangin glucuronides,Caco-2/TC7 cells; [5],42.8%
same,Decrease in galangin sulphates,Caco-2/TC7 cells; [5],37.0%
same,Decrease in quercetin glucuronides,Caco-2/TC7 cells; [5],56.5%
same,Decrease in quercetin sulphates,Caco-2/TC7 cells; [5],39.6%
same,"Apical kaempferol conjugates, change vs no MK571",Caco-2/TC7 cells; [6],−43.2%
same,"Apical kaempferol conjugates, rate",Caco-2/TC7 cells; [6],1.196 nmol/h
same,"Basolateral kaempferol conjugates, change vs no MK571",Caco-2/TC7 cells; [6],−56.7%
same,"Basolateral kaempferol conjugates, rate",Caco-2/TC7 cells; [6],1.484 nmol/h
same,"Cellular kaempferol conjugates, change vs no MK571",Caco-2/TC7 cells; [6],−20.0%
same,"Cellular kaempferol conjugates, rate",Caco-2/TC7 cells; [6],0.004 nmol/h
same,"Total kaempferol conjugates, change vs no MK571",Caco-2/TC7 cells; [6],−51.5%
same,"Total kaempferol conjugates, rate",Caco-2/TC7 cells; [6],2.684 nmol/h
same,"Apical kaempferol conjugates, change vs no MK571",Caco-2/TC7 cells; [7],−81.9%
same,"Apical kaempferol conjugates, rate",Caco-2/TC7 cells; [7],0.382 nmol/h
same,"Basolateral kaempferol conjugates, change vs no MK571",Caco-2/TC7 cells; [7],−69.0%
same,"Basolateral kaempferol conjugates, rate",Caco-2/TC7 cells; [7],1.062 nmol/h
same,"Cellular kaempferol conjugates, change vs no MK571",Caco-2/TC7 cells; [7],−24.2%
same,"Cellular kaempferol conjugates, rate",Caco-2/TC7 cells; [7],0.003 nmol/h
same,"Total kaempferol conjugates, change vs no MK571",Caco-2/TC7 cells; [7],−73.9%
same,"Total kaempferol conjugates, rate",Caco-2/TC7 cells; [7],1.447 nmol/h
same,"Apical quercetin conjugates, change vs no MK571",Caco-2/TC7 cells; [8],−37.1%
same,"Apical quercetin conjugates, rate",Caco-2/TC7 cells; [8],0.706 nmol/h
same,"Basolateral quercetin conjugates, change vs no MK571",Caco-2/TC7 cells; [8],−56.3%
same,"Basolateral quercetin conjugates, rate",Caco-2/TC7 cells; [8],1.275 nmol/h
same,"Cellular quercetin conjugates, change vs no MK571",Caco-2/TC7 cells; [8],−2.72%
same,"Cellular quercetin conjugates, rate",Caco-2/TC7 cells; [8],0.004 nmol/h
same,"Total quercetin conjugates, change vs no MK571",Caco-2/TC7 cells; [8],−50.9%
same,"Total quercetin conjugates, rate",Caco-2/TC7 cells; [8],1.985 nmol/h
same,Inhibition of chrysin glucuronide efflux,Caco-2 cells; [9],71%
same,Inhibition of chrysin sulphate efflux,Caco-2 cells; [9],25%
same,Efflux of methylated sulphate conjugates and sulphate conjugates of epigallocatechin,"Caco-2 cells; 50 μM, ref [35]",substantially inhibited
same,Inhibition of apical efflux of epicatechin sulphate conjugates,Caco-2 cells; ref [36],> 50%
same,Apigenin sulfation,[2],not inhibited
same,Inhibition of apigenin glucuronidation,[2],30–40%
